# Paper PMC7026589, “Sensitive CometChip assay for screening potentially carcinogenic DNA adducts by trapping DNA repair intermediates” (Nucleic Acids Research, 2019)
# Several values for one entry are separate records, joined by “and”; a condition that tells them apart may be missing. Equal entries are not always repeated. Where two headings read alike, the source gives them in different places.
# Assays:
# HepG2 cells = system: HepG2 cells
# Method: HepG2 (ATCC® HB-8065™), an immortalized cell line derived from human hepatocellular carcinoma, was obtained from the American Type Culture Collection (Manassas, VA). HepG2 cells were cultured in high-glucose DMEM supplemented with 10% FBS, 1× GlutaMAX™, and 100 U/ml Pen-Strep. For chemical exposures, exponentially growing cells were plated in a tissue cultured treated 96-well plate two days before treatment.
# (§1) To load cells into microwells, ∼2000–200 000 cells in suspension were placed into each macrowell, and the chip was incubated at 37°C in the presence of 5% CO2 for 15 min. Cell were loaded into microwells by gravity, and excess cells were then washed off with PBS by shear force. The chip was covered with a layer of overlay agarose (1% w/v low-melting point agarose solution in PBS, kept molten at 43°C until use). For complete gelation of the overlay agarose, the chip was kept at room temperature for two minutes followed by 2 min at 4°C.
# (§2) The alkaline comet assay was performed as previously ([15],[79]). Sodium chloride (NaCl, 7581), disodium EDTA (Na2EDTA, 4931), and sodium hydroxide pellets (NaOH, 7708) were purchased from VWR, Radnor, PA. Trizma® base (T1503), Trizma® HCl (T5941) and Triton X-100 (X-100) were obtained from MilliporeSigma, St. Louis, MO. 10 000× SYBR™ Gold nucleic acid gel stain was obtained from ThermoFisher Scientific, Waltham, MA.
# (§3) The alkaline lysis buffer (pH ∼ 10) was a solution of 2.5 M NaCl, 100 mM Na2EDTA, 10 mM Trizma® base, and 1% (v/v) Triton X-100 dissolved in deionized H2O (dI H2O). […] The neutralization buffer (pH ∼ 7.5) was prepared by dissolving Trizma® HCl in distilled H2O to a final concentration of 0.4 M.
# (§4) Cells encapsulated in CometChip were lysed in the alkaline lysis buffer overnight at 4°C. The nuclei were unwound in the alkaline unwinding buffer for 40 min at 4°C, and the DNA was electrophoresed in the same buffer at the same temperature for 30 min at 1 V/cm and ∼300 mA. The CometChip was then washed three times in neutralization buffer by submerging for 5 min each time.
# (§5) The DNA on CometChip was stained for 15 min at room temperature with 1× of SYBR™ Gold diluted in PBS, protected from light. Fluorescent images of the comets were captured at 40× magnification using an epifluorescence microscope (Nikon Eclipse 80i, Nikon Instruments, Inc., Melville, NY, USA) with a 480 nm excitation filter. Image acquisition was achieved by automatic scanning using a motorized XY stage. Comet images were automatically analyzed using Guicometanalyzer, a custom software developed in MATLAB (The MathWorks Inc., Natick, MA, USA) as previously described ([15]). For each condition, 100 comets or more were analysed. Outputs from Guicometanalyzer were processed and imported to a spreadsheet (Microsoft Excel, Microsoft Office Suite 2016) using Comet2Excel, an in-house software developed in Python (Python Software Foundation, Python version 2.7.10). Software is freely available upon request.
# (§6) A vehicle control condition was included by diluting DMSO in cell culture medium to get a final concentration of 0.5%. Cells were incubated with the test compound for 24 h at 37°C in the presence of 5% CO2.
# HepG2 were incubated with the test compound for 24 h at 37°C in the presence of 5% CO2. A vehicle control (0.07% sodium bicarbonate) was included.
# Cells embedded in CometChip were placed on ice and irradiated with 0, 0.9, 1.8, 3.6, 5.4, 7.2 and 9 Gy of gamma rays from a Cs 137 radiation source with a dose rate of 0.9 Gy/min. The irradiated cells were submerged into lysis buffer overnight and the alkaline CometChip assay performed as described above.
# HepaRG™ cells [1] = system: HepaRG™ cells
# From the text: Cryopreserved HepaRG™ (HPRGC10), a terminally differentiated hepatic cell line, was purchased from ThermoFisher Scientific (Waltham, MA). HepaRG™ was thawed and cultured according to manufacturer's instructions. Briefly, the general purpose working medium was WEM supplemented with 1X GlutaMAX™ and 1X HepaRG™ Thaw, Plate, & General Purpose Medium Supplement. The metabolism working medium was WEM supplemented with 1X GlutaMAX™ and HepaRG™ Maintenance/Metabolism Medium Supplement. HepaRG™ cells were thawed in the general purpose working medium and plated in a 96-well plate coated with collagen I at 100 000 cells/well. One day after plating, the general purpose working medium was changed to the metabolism working medium. The metabolism working medium was renewed on day 4 and day 6 after plating. On day 7, the cells were treated in the metabolism working medium.
# as §1, §2, §3, §4, §5
# For this experiment, the comets were analysed using Trevigen® Comet Analysis Software.
# as §6
# HepaRG™ were incubated with the test compound for 24 h at 37°C in the presence of 5% CO2. A vehicle control (1% DMSO) was included.
# [2] = cited from earlier work
# HepaRG™ cells [3] = assay type: cell-based, human
# Method: The CTG® luminescent cell viability assay kit (G7570) was obtained from Promega, Madison, WI. Cell viability after 24 h of chemical treatment was measured according to the manufacturer's instructions. Luminescent signals were recorded using a SpectraMax M2e microplate reader (Molecular Devices, Sunnyvale, CA, USA) at room temperature. The emission bracket was from 360 to 750 nm. Control wells with no cells were included to obtain background luminescence, which was then subtracted from the signal measured in the sample wells.
# CYP1A2 [4] = molecular target: T1, CYP1A2 (Homo sapiens, UniProt P05177); assay type: cell-based; conditions: human
# Method: (§7) The CYP450-Glo™ CYP3A4 assay with luciferin-IPA (V9001) and the CYP450-Glo™ CYP1A2 assay with luciferin-1A2 (V8421) were purchased from Promega, Madison, WI. The activity levels of CYP3A4 and CYP1A2 in cells were measured according to the manufacturer's protocol for non-lytic cell-based assays. Luminescent signals were recorded using a SpectraMax M2e microplate reader (Molecular Devices, Sunnyvale, CA, USA). Control wells with no cells were included to obtain background luminescence. The net signal for each sample was obtained by subtracting the background luminescence value.
# (§8) CYP3A4 or CYP1A2 activity per cell can be obtained by normalizing CYP450-Glo™ values with cell numbers. After a sample was analyzed for CYP3A4 or CYP1A2 activity, the CTG® assay was performed to obtain an estimate of the number of viable cells in the sample. The result from CYP450-Glo™ was then divided by the CTG® value to obtain the average CYP3A4 or CYP1A2 activity per cell.
# CYP1A2 [5] = molecular target: T1, CYP1A2; assay type: cell-based; set-up: The activity levels of CYP3A4 and CYP1A2 in cells were measured according to the manufacturer's protocol for non-lytic cell-based assays; endogenous in cells; host or cells: HepG2; conditions: human
# Method: as §7, §8
# [6] = 1 mM HU and 10 μM AraC, 24 h, doses with statistically significant result
# [7] = 1 mM HU and 10 μM AraC, 24 h exposure
# T1 sequence (P05177 whole entry): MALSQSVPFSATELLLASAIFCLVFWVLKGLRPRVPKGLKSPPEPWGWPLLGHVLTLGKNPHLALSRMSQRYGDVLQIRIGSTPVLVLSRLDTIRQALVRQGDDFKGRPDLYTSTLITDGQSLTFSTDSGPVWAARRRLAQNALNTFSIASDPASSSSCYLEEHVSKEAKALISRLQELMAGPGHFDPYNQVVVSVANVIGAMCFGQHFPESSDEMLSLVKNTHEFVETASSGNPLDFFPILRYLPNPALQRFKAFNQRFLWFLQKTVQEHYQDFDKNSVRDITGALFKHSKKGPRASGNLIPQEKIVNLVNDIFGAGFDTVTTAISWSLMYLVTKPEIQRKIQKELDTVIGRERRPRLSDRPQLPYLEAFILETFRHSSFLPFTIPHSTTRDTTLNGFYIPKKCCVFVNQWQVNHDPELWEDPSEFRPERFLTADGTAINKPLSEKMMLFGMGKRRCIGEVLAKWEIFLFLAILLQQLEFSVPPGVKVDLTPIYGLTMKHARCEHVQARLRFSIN
compound,measurement,setting,value
Aflatoxin B1 [AFB1],"SSBs, response",TK6 cells,no response
same,Average % Tail DNA,HepG2 cells,21.9% and 33.4%
same,"SSBs, dose-response",HepG2 cells,relatively small increase in SSBs
same,"SSBs, dose-response",HepaRG™ cells [1],strong dose-response relationship
"N.N.[Cl][Pt][Cl] [Cisplatin, cis-Diamineplatinum(II) dichloride]",Carcinogenicity IARC classification,[2],Group 2A
same,DNA damage score,"HepaRG™ cells [1]; HepaRG, using HU/AraC, 24 h",negative results
"O=C(N[C@H](CO)[C@H](O)c1ccc([N+](=O)[O-])cc1)C(Cl)Cl [CAM, Chloramphenicol]",Cytotoxicity,"HepaRG™ cells [3]; HepaRG, 24 h, CTG",high levels of cytotoxicity
same,Alkaline CometChip HepaRG (+ HU + AraC) ‘+’ dose range,HepaRG™ cells [1]; [6],3.1 mM
"Oc1ccc(O)cc1 [HQ, Hydroquinone]",Cytotoxicity,HepaRG™ cells [3],high levels of cytotoxicity
same,Genotoxicity Alkaline CometChip HepaRG (+ HU + AraC) +/−,HepaRG™ cells [1],+
same,Genotoxicity Alkaline CometChip HepaRG +/−,HepaRG™ cells [1],−
same,Alkaline CometChip HepaRG (+ HU + AraC) ‘+’ dose range,HepaRG™ cells [1]; human,0.33 mM
"O=P1(N(CCCl)CCCl)NCCCO1 (centres unmarked) [CP, Cyclophosphamide monohydrate]",DNA damage score,HepaRG™ cells [1],positives
same,Genotoxicity Alkaline CometChip HepaRG (+ HU + AraC) +/−,HepaRG™ cells [1],+
same,Genotoxicity Alkaline CometChip HepaRG +/−,HepaRG™ cells [1],−
same,Alkaline CometChip HepaRG (+ HU + AraC) ‘+’ dose range,HepaRG™ cells [1]; human,5 to 10 mM
"O=c1cc(-c2ccccc2)oc2c1ccc1ccccc12 [ANF, α-Naphthoflavone]",DNA damage by inhibitor alone,TK6 cells,does not induce DNA damage
same,B[a]P induction of CYP1A2 in the presence of ANF,CYP1A2 [4],induction of CYP1A2 is prevented
same,DNA damage by inhibitor alone,HepG2 cells,does not induce DNA damage
same,Level of B[a]P-induced SSBs in the presence of ANF,HepG2 cells,near background levels
same,DNA damage by inhibitor alone,HepaRG™ cells [1],does not induce DNA damage
same,Level of B[a]P-induced SSBs in the presence of ANF,HepaRG™ cells [1],near background levels
same,B[a]P induction of CYP1A2 in the presence of ANF,CYP1A2 [5],induction of CYP1A2 is prevented
COc1cc([C@@H]2c3cc4c(cc3[C@@H](O[C@@H]3O[C@@H]5CO[C@@H](C)O[C@H]5[C@H](O)[C@H]3O)[C@H]3COC(=O)[C@H]23)OCO4)cc(OC)c1O [Etoposide],Genotoxicity Alkaline CometChip HepaRG (+ HU + AraC) +/−,HepaRG™ cells [1],+
same,Genotoxicity Alkaline CometChip HepaRG +/−,HepaRG™ cells [1],−
"Nc1ccc(Cl)cc1 [PCA, p-Chloroaniline]",Cell death,"HepaRG™ cells [3]; HepaRG, highest dose (5 mM), 24 h",~50%
same,Carcinogenicity IARC classification,[2],Group 2B
same,DNA damage score,"HepaRG™ cells [1]; HepaRG, using HU/AraC, 24 h",negative results
"CC(=O)N1CCN(c2ccc(OCC3COC(Cn4ccnc4)(c4ccc(Cl)cc4Cl)O3)cc2)CC1 (centres unmarked) [KET, Ketoconazole]",DNA damage by inhibitor alone,TK6 cells,does not induce DNA damage
same,DNA damage by inhibitor alone,HepG2 cells,does not induce DNA damage
same,DNA damage by inhibitor alone,HepaRG™ cells [1],does not induce DNA damage
same,Level of AFB1-induced SSBs in the presence of KET,HepaRG™ cells [1],reduced to near background levels
"CN(C)N=O [NDMA, N-Nitrosodimethylamine]",Carcinogenicity IARC classification,[2],Group 2A
same,Alkaline CometChip HepaRG (+ HU + AraC) ‘+’ dose range,HepaRG™ cells [1]; [6],2.5 to 20 mM
same,Genotoxicity Alkaline CometChip HepaRG (+ HU + AraC) +/−,HepaRG™ cells [1]; [7],+
same,DNA damage score,"HepaRG™ cells [1]; HepaRG, in the absence of HU/AraC, 24 h",positive result
same,Alkaline CometChip HepaRG ‘+’ dose range,"HepaRG™ cells [1]; without HU/AraC, 24 h, doses with statistically significant result",2.5 to 20 mM
same,Genotoxicity Alkaline CometChip HepaRG +/−,"HepaRG™ cells [1]; without HU/AraC, 24 h exposure",+
"C[C@H]1[C@H](OC(=O)CCC(=O)O)O[C@@H]2O[C@@]3(C)CC[C@H]4[C@H](C)CC[C@@H]1[C@@]24OO3 [artesunate, Artesunate]",DNA damaging potential,"HepG2 cells; HepG2, 24 h, absence vs presence of 1 mM HU and 10 μM AraC",HU/AraC reveals a wider range of genotoxic artesunate doses
OO [H2O2],Comets on alkaline CometChip (comet tails),"TK6 cells; TK6 cells, 50 μM H2O2",visibly large tails
"Cc1ccc(N)cc1N [2,4-DAT, 2,4-Diaminotoluene]",Carcinogenicity IARC classification,[2],Group 2B
same,Alkaline CometChip HepaRG (+ HU + AraC) ‘+’ dose range,HepaRG™ cells [1]; [6],10 mM
same,Genotoxicity Alkaline CometChip HepaRG (+ HU + AraC) +/−,HepaRG™ cells [1]; [7],+
same,Genotoxicity Alkaline CometChip HepaRG +/−,"HepaRG™ cells [1]; without HU/AraC, 24 h exposure",−
